SMILES strings stand for the structures. pKi: −log10 of the molar value. Structures can show the parent of a compound that is named as a salt.

From patent US20040034219A1, “Benzothiophene derivative compounds process of preparation and use thereof” (priority 2000, published 2004) come the findings set out here.

The target of one data set is T1, serotonin transporter (Rattus norvegicus, UniProt P31652).
T1 construct: a fraction of semi-purified membranes of the cerebral cortex of rat; from tissue; host or cells: rat cerebral cortex membranes
T1 sequence (P31652 whole entry): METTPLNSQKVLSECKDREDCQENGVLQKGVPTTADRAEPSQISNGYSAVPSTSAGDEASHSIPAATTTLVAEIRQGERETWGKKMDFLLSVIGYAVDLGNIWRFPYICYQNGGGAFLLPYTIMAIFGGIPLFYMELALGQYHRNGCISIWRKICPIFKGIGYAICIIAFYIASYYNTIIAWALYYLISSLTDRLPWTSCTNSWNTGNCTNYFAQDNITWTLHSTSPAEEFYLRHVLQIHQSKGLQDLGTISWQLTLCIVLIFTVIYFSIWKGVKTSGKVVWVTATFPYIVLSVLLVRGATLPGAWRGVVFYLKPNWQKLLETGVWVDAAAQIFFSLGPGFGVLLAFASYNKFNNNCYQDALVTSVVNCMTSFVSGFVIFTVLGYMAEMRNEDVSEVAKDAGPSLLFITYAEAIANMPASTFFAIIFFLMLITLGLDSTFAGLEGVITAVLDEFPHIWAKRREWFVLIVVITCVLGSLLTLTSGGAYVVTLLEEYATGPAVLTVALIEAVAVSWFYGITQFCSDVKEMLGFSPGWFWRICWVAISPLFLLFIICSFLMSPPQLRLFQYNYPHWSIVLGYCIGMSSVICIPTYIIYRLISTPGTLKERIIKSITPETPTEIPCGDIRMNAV
Put plainly: Tests of fixing to the serotonin transporter (5-HT), 3H-paroxetine displacement. To be noted: membranes of rat cerebral cortex, 3H-paroxetine 0.1 nM, 60 minutes at 22° C. The format is binding. Here is the method:
Tests of Fixing to the Serotonin Transporter (5-HT)
The biological material used was a fraction of semi-purified membranes of the cerebral cortex of rat, obtained using the method described above.
The membrane fraction was resuspended in Tris-HCl 50 mM, pH 7.4 at 40° C., which contained NaCl 120 mM and KCl 5 mM, and was incubated with ^3H-paroxetine 0.1 nM and different concentrations of fluoxetine as displacing agent. At the end of the period of incubation of 60 minutes at 22° C. the membrane fraction was separated by rapid filtration and the radioactivity of the combined fraction quantified by means of liquid scintillation.
(§1) The results are expressed as the Ki of the serotonin transporter and the Ki of the 5-HT1A receptor.

The next data set deals with T2, 5-HT1A receptors (Rattus norvegicus, UniProt P19327).
T2 construct: fraction of membranes isolated from the cerebral cortex of rats; from tissue; host or cells: rat cerebral (frontal) cortex membranes
T2 sequence (P19327 1-422): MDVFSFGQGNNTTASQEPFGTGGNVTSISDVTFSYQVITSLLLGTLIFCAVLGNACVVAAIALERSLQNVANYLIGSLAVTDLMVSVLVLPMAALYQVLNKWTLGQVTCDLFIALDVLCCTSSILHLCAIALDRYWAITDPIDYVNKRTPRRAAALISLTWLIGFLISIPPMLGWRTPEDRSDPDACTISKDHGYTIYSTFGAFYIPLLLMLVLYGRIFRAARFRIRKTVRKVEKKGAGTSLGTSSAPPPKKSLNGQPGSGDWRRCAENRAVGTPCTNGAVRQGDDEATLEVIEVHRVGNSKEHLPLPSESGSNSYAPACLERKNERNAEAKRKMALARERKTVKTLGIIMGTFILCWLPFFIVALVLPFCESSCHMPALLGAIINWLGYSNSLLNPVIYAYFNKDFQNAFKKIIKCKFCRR
Put plainly: Tests for fixing to serotonin 5HT1A receptors, 3H-DPAT displacement. It counts as binding. The following applies: membranes of rat cerebral cortex, 3H-DPAT 1 nM, 15 minutes at 37° C. Here is the method: Tests for Fixing to Serotonin 5HT1A Receptors
The technique described by Hoyer and collaborators (Eur. J. Pharmacol. 118:13-23.1985) was used to determine the affinity of the products for the 5-HT1A receptors. The studies were carried out with the fraction of membranes isolated from the cerebral cortex of rats. The agonist ^3H-Dipropylaminotetraline (DPAT) was used as specific ligand, while non-radioactive DPAT was used as displacing ligand.
In order to isolate the fraction of membranes, the frontal cortex of the rat was dissected and homogenised in Tris-HCl 50 mM, pH 7.7 at 4° C. The resulting homogenate was centrifuged at 25000 rpm for 15 minutes at 4° C. and the sediment resuspended in Tris-HCl containing CaCl2 4 mM. For the fixing test the suspension of membranes was incubated with ^3H-DPAT (1 nM) and different concentrations of the cold displacing agent. Once the incubation period of 15 minutes at 37° C. had elapsed, the membrane fraction was separated by means of rapid filtration and the radioactivity of the combined fraction quantified by means of liquid scintillation.
as §1

A word on the melting point: it is the temperature, or range, at which the solid turns liquid. `Cl.Cl.O=C(CCN1CCN(c2cccc3cccnc23)CC1)c1csc2ccccc12` showed a melting point of 150 to 152 °C.

Consider `O=C(CCN1CCN(c2cccc3[nH]ccc23)CC1)c1csc2ccccc12` [Example 10, 1-(benzo[b]thiophen-3-yl)-3-[4-(indol-4-yl)piperazin-1-yl]propan-1-one], for which the melting point lay within 83 to 85 °C.

Take `O=C(CCN1CCN(c2ccc3ccccc3n2)CC1)c1csc2ccccc12` [Example 14, 1-(benzo[b]thiophen-3-yl)-3-[4-(quinol-2-yl)piperazin-1-yl]propan-1-one]: the melting point lay in the range of 92 to 96 °C.

In turn, `O=C(CCN1CCN(c2ccnc3ccccc23)CC1)c1csc2ccccc12` [Example 15, 1-(benzo[b]thiophen-3-yl) -3-[4-(quinol-4-yl)piperazin-1-yl]propan-1-one] came in with a melting point of 134 to 136 °C.

Turning to `O=C(CCN1CCN(c2cnc3ccccc3c2)CC1)c1csc2ccccc12` [Example 16, 1-(benzo [b]thiophen-3-yl) -3-[4-(quinol-3-yl)piperazin-1-yl]propan-1-one], the melting point lay within 112 to 114 °C.

As a reminder, the pKi is −log10 of the Ki, conventionally taken in molar units. Turning to `O=C(CCN1CCN(c2cccc3c2OCCO3)CC1)c1csc2ccc([N+](=O)[O-])cc12` [Example 21, 1-(5-nitrobenzo[b]thiophen-3-yl)-3-[4-(2,3-dihydro-1,4-benzodioxyn-5-yl)piperazin-1-yl]propan-1-one], the pKi at serotonin transporter was 7.80; on 5-HT1A receptors it was 8.49.

`OC(CCN1CCN(c2cccc3cccnc23)CC1)c1csc2ccc(F)cc12` (stereo not drawn) [Example 27, 1-(5-fluorobenzo[b]thiophen-3-yl)-3-[4-(quinol-8-yl)piperazin-1-yl]propan-1-ol] showed a melting point of 89 to 91 °C. On serotonin transporter, this compound gave a pKi of 8.12. On 5-HT1A receptors, this compound gave a pKi of 8.57.

Turning to `OC(CCN1CCN(c2cccc3c2OCCO3)CC1)c1csc2ccc(F)cc12` (stereo not drawn) [Example 28, 1-(5-fluorobenzo[b]thiophen-3-yl)-3-[4-(2,3-dihydro-1,4-benzodioxyn-5-yl)piperazin-1-yl]propan-1-ol], the melting point was in the range of 147 to 150 °C. The compound further had a pKi at serotonin transporter of 7.83. Moreover, the pKi at 5-HT1A receptors is 8.22.

In turn, `OC(CCN1CCN(c2cccc3[nH]ccc23)CC1)c1csc2ccc(F)cc12` (stereo not drawn) [Example 29, 1-(5-fluorobenzo[b]thiophen-3-yl)-3-[4-(indol-4-yl)piperazina-1-yl]propan-1-ol] showed a melting point of 170 to 173 °C. Further, the pKi at serotonin transporter was 8.14. On 5-HT1A receptors, this compound had a pKi of 8.23.

With `Cc1ccc2cccc(N3CCN(CCC(O)c4csc5ccc(F)cc45)CC3)c2n1` (stereo not drawn) [Example 30, 1-(5-fluorobenzo[b]thiophen-3-yl)-3-[4-(quinaldin-8-yl)piperazin-1-yl]propan-1-ol], the pKi was 8.07 on serotonin transporter and 8.60 at 5-HT1A receptors.

As for `Cl.OC(CCN1CCN(c2cccc3cccnc23)CC1)c1csc2ccccc12` (stereo not drawn) [Example 33, 1-(benzo[b]thiophen-3-yl)-3-[4-(quinol-8-yl)piperazin-1-yl]propan-1-ol hydrochloride], the melting point was 169 to 170 °C. On serotonin transporter, the negative logarithm of the Ki (pKi) is 8.07. The pKi on 5-HT1A receptors was 8.82.

Turning to `Cl.OC(CCN1CCN(c2cccc3[nH]ccc23)CC1)c1csc2ccccc12` (stereo not drawn) [Example 35, 1-(benzo[b]thiophen-3-yl)-3-[4-(indol-4-yl)piperazin-1-yl]propan-1-ol hydrochloride], the melting point was over 300 °C. Moreover, the pKi at serotonin transporter was 8.39. On 5-HT1A receptors, this compound had a pKi of 8.26.

`Cc1ccc2cccc(N3CCN(CCC(O)c4csc5ccccc45)CC3)c2n1` (stereo not drawn) [Example 36, 1-(benzo[b]thiophen-3-yl)-3-[4-(quinaldin-8-yl)piperazin-1-yl]propan-1-ol hydrochloride]: the pKi on serotonin transporter was 8.00; on 5-HT1A receptors it was 7.99.

For `OC(CCN1CCN(c2cccc3ncccc23)CC1)c1csc2ccccc12` (stereo not drawn) [Example 37, 1-(benzo[b]thiophen-3-yl)-3-[4-(quinol-5-yl)piperazin-1-yl]propan-1-ol], the melting point fell in the range of 127 to 129 °C. Also, the pKi on serotonin transporter is 7.90. This compound had a pKi at 5-HT1A receptors of 7.58.

For `O=[N+]([O-])c1ccc2scc(C(O)CCN3CCN(c4cccc5c4OCCO5)CC3)c2c1` (stereo not drawn) [Example 39, 1-(5-nitrobenzo[b]thiophen-3-yl)-3-[14-(2,3-dihydro-1,4-benzodioxyn-5-yl)piperazin-1-yl]propan-1-ol], the pKi on serotonin transporter was 8.16; at 5-HT1A receptors, 7.85.

On to `OC(CCN1CCN(c2ccc3ccccc3n2)CC1)c1csc2ccccc12` (stereo not drawn) [Example 44, 1-(benzo [b]thiophen-3-yl) -3-[4-(quinol-2-yl)piperazin-1-yl]propan-1-ol], for which the negative-log Ki (pKi) at serotonin transporter was 8.19; on 5-HT1A receptors, 6.42.

On to `OC(CCN1CCN(c2ccnc3ccccc23)CC1)c1csc2ccccc12` (stereo not drawn) [Example 45, 1-(benzo[b]thiophen-3-yl)-3-[4-(quinol-4-yl)piperazin-1-yl]propan-1-ol hydrochloride], for which the pKi is 7.71 on serotonin transporter and 6.52 at 5-HT1A receptors.

Turning to `OC(CCN1CCN(c2ccc3ncccc3c2)CC1)c1csc2ccccc12` (stereo not drawn) [Example 47, 1-(benzo[b]thiophen-3-yl)-3-[4-(quinol-6-yl)piperazin-1-yl]propan-1-ol], the results for the pKi at serotonin transporter and on 5-HT1A receptors were 8.66 and 6.26, respectively.

Take `Oc1ccc2scc(C(O)CCN3CCN(c4cccc5c4OCCO5)CC3)c2c1` (stereo not drawn) [Example 50, 1-(5-hydroxybenzo[b]thiophen-3-yl)-3-[4-(2,3-dihydro-1,4-benzodioxyn-5-yl)piperazin-1-yl]propan-1-ol]: the pKi on serotonin transporter is 8.21; on 5-HT1A receptors it was 7.74.
